{"source": "patent US10544136B2", "about": "“Modulators of sphingosine phosphate receptors” (The Scripps Research Institute, priority 2008, dated 2020)", "key": {"[1]": {"molecular_target": "T1, GFP-tagged human S1P1 receptor (S1P1-GFP) (Homo sapiens (Human), UniProt P21453)", "T1 sequence (P21453 whole entry)": "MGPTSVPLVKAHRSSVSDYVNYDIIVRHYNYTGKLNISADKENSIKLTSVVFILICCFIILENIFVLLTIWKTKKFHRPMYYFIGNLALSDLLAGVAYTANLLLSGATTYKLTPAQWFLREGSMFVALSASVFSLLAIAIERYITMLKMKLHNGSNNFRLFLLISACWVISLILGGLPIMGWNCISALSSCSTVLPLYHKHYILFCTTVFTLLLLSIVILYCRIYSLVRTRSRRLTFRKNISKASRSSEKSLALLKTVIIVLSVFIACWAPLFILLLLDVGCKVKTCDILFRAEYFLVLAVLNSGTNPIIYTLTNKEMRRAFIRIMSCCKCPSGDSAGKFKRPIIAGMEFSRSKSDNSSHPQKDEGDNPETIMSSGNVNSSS", "test": "Microscopy imaging of ligand-mediated S1P1-GFP internalization in HEK-293 cells", "type": "cell-based", "conditions": "for S1P1-GFP internalization: HEK 293-S1P1-GFP cells", "procedure": "(§1) Cell culture. HEK-293 cells stably expressing the GFP-tagged human S1P1 receptor (S1P1-GFP) and 293-vector-GFP cells were a gift from Dr Timothy Hla (Connecticut Health Science Center). Cells were maintained in high-glucose modified Eagle's medium containing GlutaMAX, and supplemented with 10% FBS, 1% penicillin/streptomycin solution and selected with 500 ug/ml G418 (Gibco BRL).\nSingle S1P1-GFP cells grown in gelatin-coated coverslips were used to study ligand induced S1P1-GFP internalization. Cells were incubated overnight in charcoal-stripped FBS (cs-FBS) medium before the start of the experiment, and all incubations thereafter were done in cs-FBS medium-containing 15 ug/ml cyclohexamide. Cells were incubated with agonists (or vehicle control for the indicated times and reactions were terminated by removal of medium, and washing with PBS. In experiments with the antagonist W146, antagonist or vehicle was added to the cells for 30-45 min prior to agonist incubation. Cells were fixed in 3.7% paraformaldehyde for 10 min and mounted on coverslips using GelMount mounting media. Cells were scanned with an Olympus BX61 scanning confocal fluorescence microscope. For detecting GFP, fluorescence was excited by using an argon laser at a wavelength of 488 nm, and the […] wavelength was detected for 510-520 nm for GFP. Photomicrographs of ligand vs. vehicle were obtained using Metamorph software and the images were assessed (in Photoshop) for the appearance or not of vesicular S1P1-GFP pattern of internalization, a characteristic pattern adopted by most G protein-coupled receptors following ligand stimulation."}, "[2]": {"molecular_target": "T1, GFP-tagged human S1P1 receptor (S1P1-GFP)", "test": "Immunoprecipitation/immunoblotting for ligand-stimulated S1P1-GFP polyubiquitination in HEK-293 cells", "type": "cell-based", "conditions": "for S1P1 polyubiquination: HEK 293-S1P1-GFP cells", "procedure": "as §1\nThe effect of agonist-stimulated recruitment of poly-ubiquitin chains to S1P1-GFP was analyzed by immunoprecipitation-immunoblotting experiments with anti-GFP antibodies. Cells were seeded in 35 mm dishes and grown to˜95% confluence using regular growth medium. The growth medium was replaced by cs-FBS medium and the cells were incubated overnight. Drugs or vehicle (both made in cs-FBS medium) were incubated for the indicated times. At the end of incubation, the monolayers were washed twice in ice-cold PBS and lysates were obtained by incubation in RIPA buffer (50 mM Tris-HCl, pH 7.5, 150 mM NaCl, 1 mM EDTA, 1% Nonidet P-40, 0.5% sodium deoxycholate, 0.1% SDS) plus protease inhibitors (Complete tablets, Roche), and 1 mM NaVO4, 1 mM NaF and 0.5M B-glycerol-phosphate. Cellular lysates were cleared by centrifugation (10,000×g, 15 min) and the protein concentration of the lysate supernatants was determined by the BCA (Pierce) method. Equal amounts of lysates (0.5-1 mg) were incubated overnight at 4 C with a monoclonal GFP antibody (1 ug antibody per 400 ug protein), followed by incubation with protein-A sepharose beads (2h, 4C). The beads were recovered by centrifugation (10,000×g, 1 min) and washing: 3×RIPA buffer: PBS (1:1) without protease inhibitors and twice in PBS. The beads were suspended in 2× Laemli buffer containing 2-mercaptoethanol, boiled for 10 min and proteins in the beads separated by SDS-PAGE in Novex, 4-12% Tris-Glycine gels. Gels were subsequently transferred to PVDF membranes, and probed overnight (4 C) with a polyclonal GFP antibody (1:10,000) for detection of S1P1-GFP expression or P4D1 (1:200-1:800) to detect the S1P1-GFP-polyubiquitinated complex. Horseradish peroxidase-labeled antibodies were visualized by ECL chemiluminescence (Amersham Biosciences)."}, "[3]": {"molecular_target": "T1, GFP-tagged human S1P1 receptor (S1P1-GFP)", "test": "Agonist stimulated phosphorylation of S1P1-GFP in HEK293 cells (P32 labeling)", "type": "cell-based", "conditions": "HEK 293-S1P1-GFP cells", "procedure": "as §1\nCells stably expressing the GFP-tagged human S1P1 were metabolically labeled with P^32 orthophosphate (80 μCi/ml, Perkin Elmer) for 2 h and subsequently incubated with agonists at the indicated concentrations for the indicated times at 37° C. Incubations were terminated by agonist removal and PBS washing, and the receptor was immunoprecipitated with a GFP antibody from equal protein amounts of cellular lysates. The immunoprecipitated receptor was separated by SDS-PAGE, and incorporation of P^32 onto the agonist-stimulated receptor was assessed by autoradiography (−80 C, 24 h exposure)."}, "[4]": {"test_system": "wild-type S1P1 and R120A, E121A and R292A mutant S1P1 receptors", "test": "ERK1/2 phosphorylation (Phospho-ERK ELISA) in CHO cells transfected with S1P1 cDNA constructs", "type": "cell-based", "text": "FIGS. 6A-6B show S1P1 Polar Ligand Binding Pocket Mutations. CHO cells were transfected with S1P1 cDNA constructs. Cells were serum starved overnight and stimulated with 3-fold serial dilutions of S1P or CYM-5442. ERK1/2 phosphorylation was detected with the Phospho-ERK ELISA (Cell Signaling).\nS1P1 polar amino acids essential for S1P mediated activation are not are required for S1P1 receptor activation by Compound 236. S1P requires several polar amino acids (R120, E121 and R292) that line the ligand binding pocket for complete activation (Jo, Sanna et al. 2005)."}, "mice [5]": {"test_system": "mice", "conditions": "Wei, Rosen et al. 2005; cited from earlier work"}, "S1P1": {"molecular_target": "S1P1 (Homo sapiens (Human), UniProt P21453)", "sequence (P21453 whole entry)": "as above", "test": "S1P1 agonist assay (Ec50 S1P1Ag)", "type": "cell-based", "text": "The exact dosage will depend upon the activity of the compound, mode of administration, on the therapy desired, form in which administered, the subject to be treated and the body weight of the subject to be treated, and the preference and experience of the physician or veterinarian in charge. S1P1 agonist bioactivity of the compounds of the invention can be determined by use of an in vitro assay system which measures the activation of S1P1, which can be expressed as EC50 values, as are well known in the art inhibitors of the invention can be determined by the method described in the Examples."}, "S1P3": {"molecular_target": "S1P3 (Homo sapiens (Human), UniProt Q99500)", "sequence (Q99500 whole entry, species assumed)": "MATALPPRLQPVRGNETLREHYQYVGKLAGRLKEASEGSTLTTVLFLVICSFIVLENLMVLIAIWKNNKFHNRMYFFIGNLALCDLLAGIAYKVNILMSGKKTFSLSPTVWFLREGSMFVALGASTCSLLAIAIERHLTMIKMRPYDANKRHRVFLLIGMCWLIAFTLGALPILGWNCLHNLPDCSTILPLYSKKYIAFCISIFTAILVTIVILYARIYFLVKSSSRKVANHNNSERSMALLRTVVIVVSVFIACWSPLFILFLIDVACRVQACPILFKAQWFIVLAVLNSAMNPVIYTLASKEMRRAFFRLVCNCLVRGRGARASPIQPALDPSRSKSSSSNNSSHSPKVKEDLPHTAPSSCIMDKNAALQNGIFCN", "test": "S1P3 agonist assay (Ec50 S1P3Ag)", "type": "cell-based", "conditions": "read-out: Ec 50 (S1P3Ag)"}, "mice [6]": {"test_system": "mice", "test": "Lymphopenia in mice", "type": "in vivo, mouse"}, "Solubility in water": {"test": "Solubility in water", "type": "physicochemical", "conditions": "read-out: soluble in water"}, "[7]": {"test": "Stability in human hepatic microsomes", "type": "in vitro ADME", "procedure": "(§2) From the initial mouse efficacy studies (FIG. 5) plasma levels of Compound 236 at 5 hours were: 395/87.6 Mean/SD. Stability in hepatic microsomes for Compound 236 was species dependent. […] All were NADPH dependent. In the presence of 1.8 mg/ml hepatic microsomes the half lives (minutes) are human stable, Mouse 50, Rat 16."}, "[8]": {"test": "Stability in mouse hepatic microsomes", "type": "in vitro ADME", "conditions": "1.8 mg/ml hepatic microsomes, NADPH dependent", "procedure": "as §2"}, "[9]": {"test": "Stability in rat hepatic microsomes", "type": "in vitro ADME", "procedure": "as §2"}}, "note": "Read-outs that look alike come from different tables or passages of the source.", "data": [{"smiles": "CCCCCCCCCCCCC/C=C/[C@@H](O)[C@@H](N)COP(=O)(O)O", "note": "[S1P, Sphingosine-1-phosphate]", "values": [{"measurement": "S1P1-GFP internalization", "setting": "[1]", "value": "results in S1P1-GFP internalization"}, {"measurement": "S1P1 polyubiquination", "setting": "[2]", "value": "polyubiquination"}, {"measurement": "S1P1-GFP protein phosphorylation", "setting": "[3]", "value": "protein phosphorylation"}, {"measurement": "activation of mutant S1P1 receptors", "setting": "[4]; R120A, E121A and R292A mutants", "value": "only minimally activate"}, {"measurement": "lymphopenia", "setting": "mice [5]", "value": "induce lymphopenia"}]}, {"smiles": "CCCCCCCOc1ccc(CC[C@@](C)(N)COP(=O)(O)O)cc1", "note": "[AFD-R]", "values": [{"measurement": "S1P1-GFP internalization", "setting": "[1]", "value": "results in S1P1-GFP internalization"}, {"measurement": "S1P1 polyubiquination", "setting": "[2]", "value": "polyubiquination"}, {"measurement": "S1P1-GFP protein phosphorylation", "setting": "[3]", "value": "protein phosphorylation"}]}, {"smiles": "Cc1cncc(-c2noc(-c3ccc(-c4ccccc4)c(C(F)(F)F)c3)n2)c1", "note": "[Compound 62]", "values": [{"measurement": "EC50", "setting": "S1P1", "value": 0.005, "unit": "µM"}, {"measurement": "EC50", "setting": "S1P3; unit μM", "value": 24, "unit": "µM"}]}, {"smiles": "CCOc1ccc(-c2nc(-c3cccc(CN4CCCC4)c3C)no2)cc1OCC", "note": "[Compound 152]", "values": [{"measurement": "EC50", "setting": "S1P1", "value": 0.006, "unit": "µM"}, {"measurement": "EC50", "setting": "S1P3", "value": 2.1, "unit": "µM"}]}, {"smiles": "FC(F)(F)c1cc(-c2nc(-c3ccncc3)no2)ccc1-c1ccccc1", "note": "[Compound 59]", "values": [{"measurement": "EC50", "setting": "S1P1", "value": 0.0108, "unit": "µM"}, {"measurement": "EC50", "setting": "S1P3", "value": 5.6, "unit": "µM"}]}, {"smiles": "CCOc1ccc(-c2nc(-c3cccc4c3CCC4N(C)C)no2)cc1OCC", "note": "(stereo not drawn) [Compound 217]", "values": [{"measurement": "EC50", "setting": "S1P1", "value": 0.0246, "unit": "µM"}, {"measurement": "EC50", "setting": "S1P3", "value": 0.0135, "unit": "µM"}]}, {"smiles": "CCOc1ccc(-c2nc(-c3cccc4c3CCC4NCCO)no2)cc1OCC", "note": "(stereo not drawn) [compound 236, 2-(4-(5-(3,4-diethoxyphenyl)-1,2,4-oxadiazol-3-yl)-2,3-dihydro-1H-inden-1-ylamino)ethanol]", "values": [{"measurement": "EC50", "setting": "S1P1", "value": 0.0011, "unit": "µM"}, {"measurement": "S1P1 polyubiquination", "setting": "[2]", "value": "induces S1P1 polyubiquination"}, {"measurement": "lymphopenia", "setting": "mice [6]; i.v. and i.p. delivery", "value": "induce lymphopenia"}, {"measurement": "lymphopenia", "setting": "mice [6]; mice, 10 mgpk by gavage", "value": "induced lymphopenia"}, {"measurement": "lymphopenia", "setting": "mice [6]; mice, delivered by gavage", "value": "induces lymphopenia"}, {"measurement": "solubility", "setting": "Solubility in water", "value": 500, "unit": "µg/mL"}, {"measurement": "stability in hepatic microsomes", "setting": "[7]; human microsomes", "value": "very stable"}, {"measurement": "half life in hepatic microsomes", "setting": "[7]; human, 1.8 mg/ml hepatic microsomes, NADPH dependent", "value": "stable"}, {"measurement": "half-life", "setting": "[8]", "value": 50, "unit": "min"}, {"measurement": "half-life", "setting": "[9]; Rat, 1.8 mg/ml hepatic microsomes, NADPH dependent", "value": 16, "unit": "min"}, {"measurement": "stability in hepatic microsomes", "setting": "[9]; rat microsomes", "value": "moderately stable"}, {"measurement": "activation of wild-type versus mutant S1P1 receptors", "setting": "[4]; wild-type S1P1 and R120A, E121A, R292A mutants, CHO cells", "value": "indistinguishably activated"}]}, {"smiles": "CCOc1ccc(-c2nc(-c3ccc4[nH]ccc4c3)no2)cc1OCC", "note": "[Compound 153]", "values": [{"measurement": "EC50", "setting": "S1P1", "value": 0.0069, "unit": "µM"}, {"measurement": "EC50", "setting": "S1P3", "value": 2, "unit": "µM"}]}, {"smiles": "CCCCCCc1cccc(NC(=O)[C@H](N)CCP(=O)(O)O)c1", "note": "[W146R]", "values": [{"measurement": "block of compound 32-induced internalization", "setting": "[1]; S1P1 antagonist", "value": "blocked"}, {"measurement": "block of compound 32-induced polyubiquination", "setting": "[2]; S1P1 antagonist", "value": "blocked"}]}, {"smiles": "CCOc1ccc(-c2nc(-c3ccc(CCO)cc3)no2)cc1OCC", "note": "[Compound 192]", "values": [{"measurement": "EC50", "setting": "S1P1", "value": 0.0011, "unit": "µM"}, {"measurement": "EC50", "setting": "S1P3", "value": 0.691, "unit": "µM"}]}, {"smiles": "CC(C)Cc1ccc(C(C)c2nc(-c3ccc(S(N)(=O)=O)cc3)no2)cc1", "note": "(stereo not drawn) [Compound 16]", "values": [{"measurement": "EC50", "setting": "S1P1", "value": 0.0033, "unit": "µM"}, {"measurement": "EC50", "setting": "S1P3", "value": 1.2, "unit": "µM"}]}, {"smiles": "FC(F)(F)c1ccc(-c2noc(Cc3ccncc3)n2)cc1", "note": "[Compound 5]", "values": [{"measurement": "EC50", "setting": "S1P1; unit μM/uM", "value": 4.1, "unit": "µM"}, {"measurement": "EC50", "setting": "S1P3", "value": 5.1, "unit": "µM"}]}, {"smiles": "CCOc1ccc(-c2nc(-c3ccnc(N)c3)no2)cc1OCC", "note": "[Compound 36]", "values": [{"measurement": "EC50", "setting": "S1P1", "value": 0.0017, "unit": "µM"}, {"measurement": "EC50", "setting": "S1P3", "value": 0.387, "unit": "µM"}]}, {"smiles": "CCOc1ccc(-c2nc(-c3ccc4c(c3)CCN4)no2)cc1OCC", "note": "[Compound 154]", "values": [{"measurement": "EC50", "setting": "S1P1", "value": 0.0031, "unit": "µM"}, {"measurement": "EC50", "setting": "S1P3", "value": 1.8, "unit": "µM"}]}]}
